Measurements taken from patent US20260035340A1, “INHIBITORS OF AKR1C3 AND METHODS OF USE” (BOARD OF REGENTS OF THE UNIVERSITY OF NEBRASKA, priority 2022, published 2026).
Read-outs that look alike come from different tables or passages of the source.

Tests used:
AKR1C2 = AKR1C2 (Homo sapiens (Human), UniProt P52895); test: AKR enzyme inhibition assay, NADP+ dependent oxidation of S-tetralol, AKR1C2 counter-screen; format: biochemical; settings: Table 2; recombinant enzyme, S-tetralol at Km; read-out: IC50 ± SD AKR1C2
Description: (§5) Structure-Activity Relationship: The ability of compounds to inhibit AKR1C3 in the first instance were determined by measuring the NADP+ dependent oxidation of S-tetralol catalyzed by recombinant enzyme as described herein. […] Assay of enzyme activity: The dehydrogenase activities of AKR1C1, AKR1C2, and AKR1C3 were determined by measuring the formation of NADH formation at 340 nm using Beckman DU640 spectrophotometer. […] After continuously monitoring for 5 min, the increase in UV absorption using different concentrations of enzyme were recorded to calculate the initial velocity and determine enzyme specific activity. IC50 value determination: The inhibitory potency for each compound was represented by IC50 value and measured as described before. […] The concentration of S-tetralol used in the assays for each AKR1C isoform was equal to the Km value for the respective enzyme so that IC50 values could be directly compared assuming a competitive pattern of inhibition. […] In this equation, “range” is the fitted uninhibited value minus the “background”, and “S” is a slope factor. “I” is the concentration of inhibitor. The equation assumes that y falls with increasing “I”.

AKR1C3 = AKR1C3 (Homo sapiens (Human), UniProt P42330); test: AKR enzyme inhibition assay, NADP+ dependent oxidation of S-tetralol, AKR1C3; format: biochemical; settings: for selectivity over AKR1C2: AKR1C3 over AKR1C2; for Selectivity 1C2:1C3: ratio of AKR1C2 to AKR1C3 IC50
Description: as §5

AKR1C1 = AKR1C1 (Homo sapiens (Human), UniProt Q04828); test: AKR enzyme inhibition assay, NADP+ dependent oxidation of S-tetralol, AKR1C1; format: biochemical; settings: Table 2; recombinant enzyme, S-tetralol at Km; read-out: IC50 ± SD AKR1C1
Description: (§6) Assay of enzyme activity: The dehydrogenase activities of AKR1C1, AKR1C2, and AKR1C3 were determined by measuring the formation of NADH formation at 340 nm using Beckman DU640 spectrophotometer. […] After continuously monitoring for 5 min, the increase in UV absorption using different concentrations of enzyme were recorded to calculate the initial velocity and determine enzyme specific activity. IC50 value determination: The inhibitory potency for each compound was represented by IC50 value and measured as described before. […] The concentration of S-tetralol used in the assays for each AKR1C isoform was equal to the Km value for the respective enzyme so that IC50 values could be directly compared assuming a competitive pattern of inhibition. […] In this equation, “range” is the fitted uninhibited value minus the “background”, and “S” is a slope factor. “I” is the concentration of inhibitor. The equation assumes that y falls with increasing “I”.

AKR1C4 = AKR1C4 (Homo sapiens (Human), UniProt P17516); test: AKR enzyme inhibition assay, AKR1C4; format: biochemical; settings: Table 2; recombinant enzyme; read-out: IC50 ± SD AKR1C4
Description: as §6

[1] = In vitro stability in simulated gastric fluid (SGF); format: in vitro ADME; settings: SGF for 1 h
Description: (§1) In vitro stability studies: Gastrointestinal (GI) fluid stability studies were performed in simulated gastric fluid (SGF) and simulated intestinal fluid (SIF). All the required media were prepared according to the USP guidelines. Mouse plasma stability were performed for neat-spiked and plasma spiked samples (pre-extraction) at 37° C. for 4 h. In addition to the analyte stability in matrix, at 48 h stability of the extracted samples was performed at 4° C. in the autosampler.

[2] = In vitro metabolic stability in human liver microsomes; format: in vitro ADME; settings: 1 μg/mL, % parent remaining
Description: (§2) In vitro metabolic stability in liver microsomes: Metabolic stability was assessed using mouse and human liver microsomes, (XenoTech, LLC, Lenexa, KS). Incubation of A1-r and 4r with the microsome fractions was performed in triplicate utilizing a concentration of 1 μg/mL as previously described. Serial samples (40 μL) were collected at selected time intervals and quenched with 300 μL of acetonitrile and then spiked with 10 μL of IS (0.5 μg/mL). All the samples were vortexed and centrifuged at 13,000×g for 15 min, and the supernatant was collected and transferred to an autosampler vial and injected (2 μL) onto the LC-MS/MS system. Testosterone, 7-HC and diclofenac were used as positive controls to ensure that the microsomes and incubation conditions were appropriate to conduct metabolism studies.

[3] = In vitro metabolic stability in mouse liver microsomes; format: in vitro ADME; settings: 1 μg/mL, % parent remaining
Description: as §2

[4] = In vitro stability in simulated intestinal fluid (SIF); format: in vitro ADME; settings: SIF for 2 h
Description: as §1

[5] = In vivo pharmacokinetic study, oral gavage; parameters: species or system BALB/c mice
Excerpt: (§3) Liquid chromatography and mass spectrometry (LCMS/MS): The ultra-performance liquid chromatography mass spectrometry system (UPLC-MS/MS) consisted of a Shimadzu 8060NX mass spectrometer and Nexera Series UPLC (Shimadzu Scientific Instruments, Columbia, MD). Analyte separation was achieved utilizing an Acquity UPLC® BEH column (C18, 2.1×100 mm, 1.7 μm) equipped with an Acquity UPLC C18 guard column (Waters, Inc. Milford MA). The mobile phase consisted of water containing 0.1% formic acid (mobile phase A) and methanol (mobile phase B) at a flow rate of 0.25 mL/min operated at room temperature. The total run time was set to last 7.5 min with a gradient elution as follows: 35% B, increasing to 95% B over 3.5 minutes, then held constant for 3.0 minutes, and finally brought back to the initial condition of 35% B in 0.20 minutes followed by 1-minute re-equilibration. The injection volume (2 μL) was consistent for all samples. The auto-sampler chamber was maintained at 4° C. throughout the analysis.
The MS/MS system was operated at unit resolution in the multiple reaction monitoring (MRM) in positive ESI mode, using precursor ion>product ion combinations of 427.20>105.10 for A1-r and 413.15>265.10 m/z for 4r. The mass spectrometer source settings were optimized to the following: nebulizer gas: 2.0 L/min; heating gas: 10 L/min; drying gas: 10 L/min; interface temperature: 300° C.; desolvation line temperature: 250° C.; heat block temperature: 400° C. Data acquisition and quantitation were performed using LabSolutions software Ver.5.99 (Shimadzu Scientific Inc, Columbia, MD).
(§4) Plasma sample preparation: Plasma samples were prepared by spiking 5 μL of the appropriate calibration (CC) and quality (QCs) control working stock into a 45 μL blank mouse plasma. The concentration of the CC ranged from 0.2-1000 ng/mL with the final concentrations of 0.2, 0.5, 1, 5, 10, 50, 100, 500, and 1000 ng/mL. A simple protein precipitation technique using Phree 96 well phospholipid elimination plate (Phenomenex Inc, Torrance CA.) was utilized to isolate analyte from the plasma matrix. The CC, QCs and study plasma samples were added to Phree 96 well plate and spiked with 10 μL of IS a working solution. The precipitation of the matrix proteins was carried out using 300 μL of ice-cold acetonitrile. The plate was again vortexed on mixmate at 950 rpm for 2 min followed by applied 5 psi positive pressure for 10 min (Resprep VM-96 Vacuum Manifold for 96-Well Plates, Catalog #25858) (Restek; Bellefonte, PA) to collect the supernatant. Two microliters of the reconstituted sample was injected into LC-MS/MS for analysis.
In vivo pharmacokinetic studies: Animal studies were approved by the University of Nebraska Medical Center (UNMC) Institutional Animal Care and Use Committee (IACUC protocol number 17-046-06-FC). BALB/c mice were purchased from Charles River Labs. Pharmacokinetic (PK) studies of A1-r and 4r were conducted in BALB/c mice. Animals were housed in the University of Nebraska Medical Center animal facility, for at least 7 days prior to the experiments, in order to acclimatize the animals to the laboratory conditions, at a temperature of 23-24° C., relative humidity of 40-70% and 12/12 h light/dark cycles with free access to food and water. The dosing solution was made of DMSO-Polyethylene glycol 400 (PEG400)-Propylene glycol (PG)-EtOH-Cremophore-PBS (2/20/10/10/5/53% v/v). Compound A1-r or 4r (10 mg/kg) was administered separately by oral gavage. After dosing, approximately 50 μL of blood was collected from the maxillary vein at 5, 15, 30 minutes and 1, 2, 7, and 24 hr (5 mice/group/per time point). A total of three blood samples were collected, with the third blood sample a terminal collection. Plasma was separated by centrifugation at 4,000×g at 4° C. for 10 minutes. The collected plasma samples were stored at −80° C. until analysis. […]

[6] = In vitro stability in mouse plasma; format: in vitro ADME; settings: mouse plasma
Excerpt: as §3
as §4, with “analysis. […]” for “analysis.”

[7] = Table 2, recombinant enzyme, S-tetralol at Km, read-out: IC50 ± SD AKR1C3
[8] = after oral administration (10 mg/kg) of 4r, Balb/c mice, plasma, mean ± SD, n = 5
[9] = after oral administration (10 mg/kg) of A1-r, Balb/c mice, mean ± SD, n = 5
[10] = after oral administration (10 mg/kg) of A1-r, Balb/c mice, plasma, mean ± SD, n = 5

Sequence of AKR1C1 (Q04828 whole entry): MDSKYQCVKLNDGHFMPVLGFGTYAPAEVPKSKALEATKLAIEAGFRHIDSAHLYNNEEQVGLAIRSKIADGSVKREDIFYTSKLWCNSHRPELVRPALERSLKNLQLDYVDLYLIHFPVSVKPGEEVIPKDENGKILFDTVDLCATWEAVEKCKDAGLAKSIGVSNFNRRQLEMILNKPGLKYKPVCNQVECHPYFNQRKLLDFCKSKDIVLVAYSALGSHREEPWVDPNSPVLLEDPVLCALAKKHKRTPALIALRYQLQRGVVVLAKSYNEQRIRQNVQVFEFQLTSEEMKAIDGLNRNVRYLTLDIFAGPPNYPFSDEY
Sequence of AKR1C2 (P52895 whole entry): as the sequence (Q04828 whole entry) above, with T38V, R47H, L54V, C87S, V151M, R170H, Q172L counted along it
Sequence of AKR1C4 (P17516 whole entry): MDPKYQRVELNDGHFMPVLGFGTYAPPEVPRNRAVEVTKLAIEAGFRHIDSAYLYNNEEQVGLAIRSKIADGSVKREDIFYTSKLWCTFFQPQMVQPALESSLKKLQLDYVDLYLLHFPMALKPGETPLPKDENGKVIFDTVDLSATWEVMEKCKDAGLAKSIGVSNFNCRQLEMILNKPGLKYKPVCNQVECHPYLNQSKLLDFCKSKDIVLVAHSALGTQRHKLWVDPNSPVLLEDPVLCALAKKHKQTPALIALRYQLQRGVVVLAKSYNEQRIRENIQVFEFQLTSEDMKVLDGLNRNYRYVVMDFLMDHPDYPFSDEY
Sequence of AKR1C3 (P42330 whole entry): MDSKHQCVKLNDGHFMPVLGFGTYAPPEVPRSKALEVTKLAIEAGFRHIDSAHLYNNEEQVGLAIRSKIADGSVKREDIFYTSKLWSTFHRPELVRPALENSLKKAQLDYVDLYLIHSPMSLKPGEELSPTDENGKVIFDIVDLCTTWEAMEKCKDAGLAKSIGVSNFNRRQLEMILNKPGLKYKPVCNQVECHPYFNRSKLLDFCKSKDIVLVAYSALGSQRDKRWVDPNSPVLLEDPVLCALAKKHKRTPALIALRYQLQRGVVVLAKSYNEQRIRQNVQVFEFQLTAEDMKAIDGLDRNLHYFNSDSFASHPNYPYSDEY

Compound	IC50 (AKR1C2)	selectivity over AKR1C2 (AKR1C3)	IC50 (AKR1C3; [7])	IC50 (AKR1C1)	IC50 (AKR1C4)	IC50 (AKR1C3; read-out: IC50 AKR1C3)	Selectivity 1C2:1C3 (AKR1C3; Table 2)	also measured
Cc1ccc(CNC(=O)c2cc(/C=C/C(=O)O)cc(-c3cccc(F)c3)c2)cc1 [Compound A1-f, (E)-3-(3′-Fluoro-5-((4-methylbenzyl)carbamoyl)-[1,1′-biphenyl]-3-yl)acrylic acid]	48 ± 16 µM	960 fold	0.05 ± 0.004 µM	> 100 µM	16.4 ± 2 µM			
C/C=C/Cc1cc(/C=C/C(=O)O)cc(C(=O)NCc2ccc(C)cc2)c1 [Compound A1-z, (E)-3-(3-((E)-But-2-en-1-yl)-5-((4-methylbenzyl)carbamoyl)phenyl)acrylic acid]	39 ± 9 µM	354 fold		> 100 µM	70 ± 11 µM	0.11 µM		
Cc1ccc(CNC(=O)c2cc(/C=C/C(=O)O)cc(-c3ccc4c(c3)OCO4)c2)cc1 [Compound A1-t, (E)-3-(3-(Benzo[d][1,3]dioxol-5-yl)-5-((4-methylbenzyl)carbamoyl)phenyl)acrylic acid]	36 ± 9.7 µM			> 100 µM	16 ± 1.6 µM	0.11 µM		
Cc1ccc(CNC(=O)c2cc(/C=C/C(=O)O)cc(-c3ccc(Cl)cc3)c2)cc1 [Compound A1-c, (E)-3-(4′-Chloro-5-((4-methylbenzyl)carbamoyl)-[1,1′-biphenyl]-3-yl)acrylic acid]	20 ± 9 µM		0.06 ± 0.007 µM	> 100 µM	6 ± 0.5 µM		333	
Cc1ccc(CNC(=O)c2cc(/C=C/C(=O)O)cc(-c3ccc4ncnn4c3)c2)cc1 [Compound A1-r, (E)-3-(3-([1,2,4]triazolo[1,5-a]pyridin-6-yl)-5-((4-methylbenzyl)carbamoyl)phenyl)acrylic acid]	62 ± 21 µM		0.051 ± 0.006 µM	> 100 µM	43 ± 6 µM		1216	stability in simulated gastric fluid (SGF) [1]: stable; metabolic stability in HLM [2]: stable; metabolic stability in MLM [3]: stable; stability in simulated intestinal fluid (SIF) [4]: stable; AUC0-t [5, 8]: 6382.8 ng·h/mL; Cmax [5, 8]: 11599.4 ng/mL; Tmax [5, 8]: 12 min; CI/F [5, 9]: 323 mL/min/kg; Extrapolated AUC % [5, 9]: 28.8%; Vz/F [5, 9]: 405.0 L/kg; AUC0-INF [5, 10]: 515.1 ng·h/mL; AUC0-t [5, 10]: 367.6 ng·h/mL; Cmax [5, 10]: 174.8 ng/mL; Tmax [5, 10]: 6 min; t1/2 [5, 10]: 864 min; detection at the last study point (24 hours) ([5]; oral 10 mg/Kg 4r, 24 hours): detected; time at which detected in plasma after oral administration ([5]; oral 10 mg/Kg, male Balb/C mice): ≤ 5 min; time stable in mouse plasma [6]: over 240 minutes
Cc1ccc(CNC(=O)c2cc(/C=C/C(=O)O)cc(-c3ccccc3)c2)cc1 [Compound A1-a, (E)-3-(5-((4-Methylbenzyl)carbamoyl)-[1,1′-biphenyl]-3-yl)acrylic acid]	> 100 µM	> 2320 fold		> 100 µM	21 ± 2.5 µM	0.04 µM	>2500	
Cc1ccc(CNC(=O)c2cc(/C=C/C(=O)O)cc(-c3ccc(-n4c5ccccc5c5ccccc54)cc3)c2)cc1 [Compound A1-v, (E)-3-(4′-(9H-Carbazol-9-yl)-5-((4-methylbenzyl)carbamoyl)-[1,1′-biphenyl]-3-yl)acrylic acid]	31 ± 2.8 µM	221 fold	0.14 ± 0.015 µM	36 ± 5.5 µM	11 ± 3.1 µM			
Cc1ccc(CNC(=O)c2cc(/C=C/C(=O)O)cc(-c3ccc(F)cc3)c2)cc1 [Compound A1-d, (E)-3-(4′-Fluoro-5-((4-methylbenzyl)carbamoyl)-[1,1′-biphenyl]-3-yl)acrylic acid]	36 ± 4 µM			> 100 µM	8 ± 1.2 µM	0.06 µM	600	
